# Results taken from ChEMBL document CHEMBL1201862, “PubChem BioAssay data set” (2004).
# Activity calls are given as the source filed them.
# What was measured:
# [1] = target: Protein disulfide-isomerase (Homo sapiens, UniProt P07237); test: PDI inhibitors, insulin aggregation turbidity, dose response, biochemical, absorbance, cherry-picked samples (AID 602350); type: functional
# [2] = Fluorescence-based cell-based high throughput dose response assay for inhibitors of the interaction of nucleotide-binding oligomerization domain containing 2 (NOD2) and the receptor-interacting serine-threonine kinase 2 (RIPK2).; type: functional, Homo sapiens
# [3] = HEK293T cytotoxicity, dose response, cytotoxicity control for miR-122 modulator project, cell-based, activator set, cherry-pick (AID 720690); type: functional;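 also: HEK293T human cells scored for general mammalian cytotoxicity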
# [4] = target: T1, Small ubiquitin-related modifier 1 (Homo sapiens, UniProt P63165); test: inhibitors of SUMO1 peptide binding, dose response, biochemical, fluorescence polarization, uHTS hits (AID 624382); type: functional; conditions: read-out: IC50_Mean
# T1 sequence (P63165 whole entry): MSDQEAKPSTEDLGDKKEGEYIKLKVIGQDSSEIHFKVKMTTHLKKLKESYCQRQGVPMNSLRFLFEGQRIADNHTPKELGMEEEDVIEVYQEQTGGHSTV
# [5] = target: T2, Small ubiquitin-related modifier 2 (Homo sapiens, UniProt P61956); test: inhibitors of SUMO2 protein-protein interaction, dose response, selectivity assay for SUMO1 interaction inhibitor project, biochemical, FRET, human SUMO2, uHTS hits (AID 624384); type: functional; conditions: read-out: IC50_Mean
# T2 sequence (P61956 whole entry): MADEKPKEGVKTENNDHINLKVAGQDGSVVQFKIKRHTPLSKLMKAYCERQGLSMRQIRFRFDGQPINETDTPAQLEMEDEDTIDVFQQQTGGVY
# [6] = target: T3, Probable nicotinate-nucleotide adenylyltransferase (Staphylococcus aureus (strain N315), UniProt P65502); type: functional, Staphylococcus aureus subsp. aureus N315; conditions: read-out: IC50_Mean;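 as to IC50 Mean: confirmatory dose-response retesting of NadD inhibitor hits first found in an ultra-high-throughput screen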
# T3 sequence (P65502 whole entry): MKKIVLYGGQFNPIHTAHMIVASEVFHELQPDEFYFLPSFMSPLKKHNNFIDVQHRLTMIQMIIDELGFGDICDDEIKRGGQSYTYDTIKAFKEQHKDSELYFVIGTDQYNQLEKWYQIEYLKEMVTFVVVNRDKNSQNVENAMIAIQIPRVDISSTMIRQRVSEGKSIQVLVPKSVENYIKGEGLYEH
# [7] = target: DNA (cytosine-5)-methyltransferase 1 (Homo sapiens, UniProt P26358); test: DNMT1 methyltransferase inhibitors, confirmation, biochemical, fluorescent molecular beacon (AID 602386); type: functional
# Chain of DNA (cytosine-5)-methyltransferase 1 (P26358 whole entry): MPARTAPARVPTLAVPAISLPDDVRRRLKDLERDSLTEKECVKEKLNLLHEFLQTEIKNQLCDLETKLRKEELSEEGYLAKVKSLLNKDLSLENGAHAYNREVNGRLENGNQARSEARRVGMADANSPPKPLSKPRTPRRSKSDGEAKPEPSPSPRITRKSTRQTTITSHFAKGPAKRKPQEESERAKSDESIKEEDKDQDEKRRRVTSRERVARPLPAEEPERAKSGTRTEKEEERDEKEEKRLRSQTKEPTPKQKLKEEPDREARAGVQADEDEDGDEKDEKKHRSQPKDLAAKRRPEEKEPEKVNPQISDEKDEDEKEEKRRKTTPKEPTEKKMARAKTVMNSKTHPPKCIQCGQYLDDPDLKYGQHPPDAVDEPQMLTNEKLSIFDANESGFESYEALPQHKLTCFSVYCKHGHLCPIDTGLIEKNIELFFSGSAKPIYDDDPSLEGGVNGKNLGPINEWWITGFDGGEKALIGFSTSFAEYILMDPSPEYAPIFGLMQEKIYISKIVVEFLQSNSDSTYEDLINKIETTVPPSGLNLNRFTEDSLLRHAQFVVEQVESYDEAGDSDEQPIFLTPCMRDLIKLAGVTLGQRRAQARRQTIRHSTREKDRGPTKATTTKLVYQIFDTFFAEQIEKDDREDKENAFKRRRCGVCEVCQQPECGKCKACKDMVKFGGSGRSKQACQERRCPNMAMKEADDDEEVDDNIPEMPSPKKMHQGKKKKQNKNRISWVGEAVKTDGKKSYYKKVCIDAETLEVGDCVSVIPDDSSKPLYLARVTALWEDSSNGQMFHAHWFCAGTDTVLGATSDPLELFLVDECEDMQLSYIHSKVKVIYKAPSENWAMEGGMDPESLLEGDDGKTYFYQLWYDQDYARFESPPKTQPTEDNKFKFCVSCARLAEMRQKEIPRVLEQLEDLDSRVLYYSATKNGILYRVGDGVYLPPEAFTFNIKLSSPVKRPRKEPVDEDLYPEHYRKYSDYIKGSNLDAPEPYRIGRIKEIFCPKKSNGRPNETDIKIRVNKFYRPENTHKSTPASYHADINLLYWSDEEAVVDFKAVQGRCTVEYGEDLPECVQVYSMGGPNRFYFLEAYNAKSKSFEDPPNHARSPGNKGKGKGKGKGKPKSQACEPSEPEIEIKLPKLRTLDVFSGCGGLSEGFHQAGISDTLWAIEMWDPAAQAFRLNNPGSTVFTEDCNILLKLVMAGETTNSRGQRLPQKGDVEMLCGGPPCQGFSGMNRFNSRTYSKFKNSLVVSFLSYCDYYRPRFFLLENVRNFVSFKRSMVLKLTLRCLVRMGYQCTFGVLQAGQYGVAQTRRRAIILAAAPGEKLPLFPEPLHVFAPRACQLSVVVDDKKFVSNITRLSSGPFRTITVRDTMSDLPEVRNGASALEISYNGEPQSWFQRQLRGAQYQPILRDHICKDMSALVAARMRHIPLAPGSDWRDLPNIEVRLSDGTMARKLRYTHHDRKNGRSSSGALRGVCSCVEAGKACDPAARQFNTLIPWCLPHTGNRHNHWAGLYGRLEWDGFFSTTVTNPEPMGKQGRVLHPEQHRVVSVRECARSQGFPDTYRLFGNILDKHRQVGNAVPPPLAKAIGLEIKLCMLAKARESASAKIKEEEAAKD
# [8] = target: T2, Small ubiquitin-related modifier 2; test: SUMO2–SIM peptide binding inhibitors, dose response, selectivity assay for SUMO1 interaction inhibitor project, biochemical, fluorescence polarization, uHTS hits (AID 624385); type: functional; conditions: read-out: IC50_Mean
# [9] = target: T3, Probable nicotinate-nucleotide adenylyltransferase; type: functional, Staphylococcus aureus subsp. aureus N315
# [10] = target: T1, Small ubiquitin-related modifier 1; test: inhibitors of SUMO1 partner interactions, dose response, biochemical, FRET (AID 624383); type: functional; conditions: read-out: IC50_Mean
# [11] = target: T4, Alkaline phosphatase, tissue-nonspecific isozyme (Homo sapiens, UniProt P05186); test: TNAP enzyme inhibition by screening hits, dose response, selectivity assay for mouse IAP inhibitor project, biochemical, human TNAP, uHTS hits (AID 488906); type: functional
# T4 sequence (P05186 whole entry): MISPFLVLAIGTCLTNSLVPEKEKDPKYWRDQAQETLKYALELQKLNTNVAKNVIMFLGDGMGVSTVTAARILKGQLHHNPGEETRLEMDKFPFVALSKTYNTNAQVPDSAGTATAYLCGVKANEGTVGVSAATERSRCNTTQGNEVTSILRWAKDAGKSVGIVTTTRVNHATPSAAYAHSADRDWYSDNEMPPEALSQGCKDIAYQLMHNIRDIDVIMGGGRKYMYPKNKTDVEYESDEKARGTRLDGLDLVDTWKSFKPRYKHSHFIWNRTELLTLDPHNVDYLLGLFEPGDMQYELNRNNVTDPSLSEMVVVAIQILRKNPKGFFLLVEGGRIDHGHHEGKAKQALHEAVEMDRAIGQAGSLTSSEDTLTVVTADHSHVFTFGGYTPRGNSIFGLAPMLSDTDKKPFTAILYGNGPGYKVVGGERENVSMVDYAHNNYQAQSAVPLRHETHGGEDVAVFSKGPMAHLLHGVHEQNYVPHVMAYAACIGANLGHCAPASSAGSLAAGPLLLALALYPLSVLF
# [12] = target: Intestinal-type alkaline phosphatase (Homo sapiens, UniProt P09923); test: inhibition of human intestinal alkaline phosphatase – biochemical, dose response (AID 488876); type: functional
# Chain of Intestinal-type alkaline phosphatase (Homo sapiens, UniProt P09923) (P09923 whole entry): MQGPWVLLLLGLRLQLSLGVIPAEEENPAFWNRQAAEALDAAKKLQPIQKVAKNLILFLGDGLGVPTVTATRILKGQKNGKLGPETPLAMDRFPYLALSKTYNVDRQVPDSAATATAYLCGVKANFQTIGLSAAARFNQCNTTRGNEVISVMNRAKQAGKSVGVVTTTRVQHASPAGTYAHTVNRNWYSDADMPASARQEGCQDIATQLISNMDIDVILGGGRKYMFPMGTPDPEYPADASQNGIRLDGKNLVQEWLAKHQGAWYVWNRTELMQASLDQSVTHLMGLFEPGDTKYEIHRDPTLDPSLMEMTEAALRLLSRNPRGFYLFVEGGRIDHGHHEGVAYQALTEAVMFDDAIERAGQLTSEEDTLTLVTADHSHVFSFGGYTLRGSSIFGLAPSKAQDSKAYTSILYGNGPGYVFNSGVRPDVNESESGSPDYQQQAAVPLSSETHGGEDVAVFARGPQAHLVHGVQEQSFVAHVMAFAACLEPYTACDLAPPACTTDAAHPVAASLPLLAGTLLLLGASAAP
# [13] = target: Intestinal-type alkaline phosphatase (Mus musculus, UniProt P24822); test: PubChem AID 488785; type: functional
# Chain of Intestinal-type alkaline phosphatase (Mus musculus, UniProt P24822) (P24822 whole entry): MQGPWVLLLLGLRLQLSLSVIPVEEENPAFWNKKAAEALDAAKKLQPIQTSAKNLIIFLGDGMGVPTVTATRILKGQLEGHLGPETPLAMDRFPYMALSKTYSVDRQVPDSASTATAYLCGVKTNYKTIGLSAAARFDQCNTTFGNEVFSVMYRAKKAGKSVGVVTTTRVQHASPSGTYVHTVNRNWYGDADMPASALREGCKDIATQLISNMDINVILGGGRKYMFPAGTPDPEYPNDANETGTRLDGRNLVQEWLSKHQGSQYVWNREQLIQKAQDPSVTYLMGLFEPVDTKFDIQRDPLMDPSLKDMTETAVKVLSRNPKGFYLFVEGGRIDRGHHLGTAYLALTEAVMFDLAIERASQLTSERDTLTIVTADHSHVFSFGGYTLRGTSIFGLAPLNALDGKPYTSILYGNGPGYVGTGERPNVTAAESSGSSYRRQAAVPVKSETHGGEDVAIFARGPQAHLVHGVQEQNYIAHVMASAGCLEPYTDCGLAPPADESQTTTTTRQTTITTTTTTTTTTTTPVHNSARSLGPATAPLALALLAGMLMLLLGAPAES
# [14] = LGR2 antagonists, dose response, cell-based, HEK293, CRE-luciferase reporter, cherry pick, set 2 (AID 743343); type: functional;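 also: transfected cells were stimulated with diluted bursicon conditioned medium after compound addition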
# [15] = MC4R antagonists, dose response, counter-screen for LGR2 antagonist project, cell-based, plate reader, cherry pick (AID 743444); type: functional;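 also: transfected HEK 293 cells stimulated with alpha-MSH peptide; potency of inhibitors of the alpha-MSH evoked signal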
# [16] = A549 cell cytotoxicity, dose response, cytotoxicity control, plate reader, cherry-pick, antagonist series (AID 743412); type: functional, cell-based
# [17] = HepG2 cell cytotoxicity, dose response, cytotoxicity control, plate reader, cherry-pick, antagonist series (AID 743416); type: functional, cell-based
# Vero = test: Vero cell toxicity, dose response, cytotoxicity control, plate reader, cherry-pick samples (AID 687020); type: functional, cell-based; conditions: Chlorocebus sabaeus
# Chain of Protein disulfide-isomerase (P07237 whole entry, the tested form may be a part): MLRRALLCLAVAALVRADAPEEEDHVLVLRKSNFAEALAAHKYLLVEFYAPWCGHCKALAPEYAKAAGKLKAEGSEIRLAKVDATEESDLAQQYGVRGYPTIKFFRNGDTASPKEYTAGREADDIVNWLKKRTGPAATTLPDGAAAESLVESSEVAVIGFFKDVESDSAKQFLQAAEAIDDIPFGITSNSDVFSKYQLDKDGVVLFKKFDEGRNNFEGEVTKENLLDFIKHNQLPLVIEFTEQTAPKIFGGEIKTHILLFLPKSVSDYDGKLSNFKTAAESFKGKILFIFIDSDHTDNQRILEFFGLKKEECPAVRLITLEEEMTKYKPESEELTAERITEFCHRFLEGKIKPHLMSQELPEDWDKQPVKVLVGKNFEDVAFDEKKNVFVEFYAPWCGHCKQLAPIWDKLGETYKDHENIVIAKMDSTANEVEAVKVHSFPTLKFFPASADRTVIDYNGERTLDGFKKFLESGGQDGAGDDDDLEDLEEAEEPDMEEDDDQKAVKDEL
structure (smiles),measurement,setting,value
O=C(O)C1C(c2ccccc2)C(C(=O)Oc2ccc(O)cc2)C1c1ccccc1 (stereo unspecified),AC50,[1],14.6 µM (active)
O=C1C[C@@H](c2ccc(O[C@@H]3O[C@H](CO)[C@@H](O)[C@H](O)[C@H]3O)cc2)Oc2cc(O)ccc21 [LIQUIRITIN],AC50,[1],15.6 µM (active)
CC1=CC2OC3CC4OC(=O)C=CC=CC(=O)OCCC(C)C(O)C(=O)OCC2(CC1O)C4(C)C31CO1 (stereo unspecified),IC50,[2],49.7 µM (inactive)
O=C(C1CCCCC1)N1C[C@@H]2[C@H](c3ccccc31)[C@H](CO)N2Cc1ccccc1Cl,AC50,[3],27.1 µM (active)
COc1ccc(Br)cc1/C=N/Nc1ccc(S(=O)(=O)Nc2ccccc2C(=O)O)cc1[N+](=O)[O-],IC50,[4],4.47 µM (active)
same,IC50,[5],45.4 µM (inactive)
same,IC50,[6],19.9 µM (active)
same,IC50,[7],3.39 µM (active)
same,IC50,[8],2.52 µM (active)
same,IC50,[9],3.24 µM (active)
same,IC50,[10],50.6 µM (inactive)
O=C(c1c(O)cc(O)cc1O)C1c2c(cc(O)c3c2O[C@H](c2ccc(O)cc2)[C@@H](O)C3)OC1c1ccc(O)cc1 (stereo partly specified) [DIHYDRODAPHNODORIN B],IC50,[11],19.7 µM (active)
same,AC50,[1],19.5 µM (active)
same,IC50,[12],18.3 µM (active)
same,IC50,[13],7.21 µM (active)
N#C[C@@H]1[C@H](c2ccc(C#Cc3cccc(F)c3)cc2)[C@@H](CO)N1C(=O)C1CCC1,AC50,[14],9.75 µM (active)
same,AC50,[15],8.46 µM (active)
same,AC50,[16],28.2 µM (active)
same,AC50,[17],> 47 µM (inactive)
Cc1cc(F)cc(-c2cc(C(=O)NCC3CCCCC3)[nH]n2)c1,AC50,Vero,22.6 µM (active)
CCn1c(=O)n(CC)c2cc(N3CCCC3)c(NC(=O)c3ccc(C)cc3)cc21,AC50,Vero,32.2 µM (active)
